Where two headings read alike, the source gives them in different places. No end group written: not given here.
Legend:
myosin A tail [1] = assay: ELISA-based interaction assay, ZA1 on coated myosin A tail; assay type: binding, Plasmodium falciparum; settings: 500 ng myosin A tail coated, ZA1-His 0–2.5 µM overlaid, 2 h 37 °C, anti-His, 450 nm, triplicates
From the text: The interaction between myosin A tail and ZA1 was confirmed through multiple protein–protein interaction studies. […] For this, myosin A tail was coated on the ELSIA plates, followed by overlaying of ZA1. After stringent washing, the binding of overlaid ZA1 protein was detected using an anti-His antibody.
(§1) All wells were put up in triplicates.

myosin A tail [2] = assay: Isothermal titration calorimetry, myosin A tail into ZA1; assay type: binding, Plasmodium falciparum; settings: ITC200, 25 °C, phosphate buffer; 150 µM myosin A tail in syringe, 10 µM ZA1 in cell; single site model
Method: ITC experiments were performed using ITC200 Microcalorimeter (Malvern, UK) at 25 °C in phosphate buffer. The cell and syringe volumes were kept 310 µL and 40 µL, respectively. The syringe was loaded with 100 µM MyoA tail for MyoA/MTIP interaction study and 150 µM for MyoA/ZA1 interaction. The sample cell was loaded with 10 µM each of MTIP and ZA1. MTIP and ZA1 were titrated using MyoA tail in injections of 2 µL each except for the first injection that was 0.4 µL. In between each titration, a 150-s interval for stirring was kept to ensure that the signal returns to baseline. Throughout the experiment, constant stirring at 300 rpm was maintained to ensure proper mixing of reaction components. For both experiments, a corresponding buffer control was also set up in which PBS was taken in the syringe. The enthalpy changes of titrations were measured, and the baseline values were subtracted from the test samples. The data analysis was carried out using Origin software and curve-fitted to obtain stoichiometry (N), dissociation constant (Kd), and enthalpy change (ƍH).

myosin A tail [3] = assay type: cell-based, Plasmodium falciparum
MTIP = MTIP (Plasmodium falciparum, UniProt Q8I4W8); assay: Competitive ITC, pre-bound Myosin A-ZA1 complex into MTIP; assay type: binding; settings: complex in syringe, MTIP in cell
Method: Figure S1: Myosin A tail and expression of MTIP. (a) Synthesized Myosin A tail peptide (2.5 kDa) resolved on Tris-tricine polyacrylamide gel.
(b) Purified MTIP-His by Ni-NTA Column chromatography. Commassie stained 15% polyacrylamide gel. Lane M: Marker, Lane 1: Purified MTIP. (17.4 kDa). Western blot of purified MTIP-His using anti-MTIP.
Figure S2: Negative control for ELISA and ITC experiments. (a) 500 ng non-specific Mycobacterial protein ESAT6 was coated on ELISA plates and indicated concentrations of ZA1 and MTIP were overlaid respectively. No interaction was observed between the coated and overlaid proteins. (b) The raw calorimetric data denoting the amount of heat produced following each injection of Myosin A from syringe into cell containing buffer only. No heat changes were observed when Myosin A was added into buffer. (c) Heat changes for competitive binding when pre-bound Myosin A-ZA1 complex is titrated from syringe into MTIP in the cell. […]
break when added into MTIP. […]

ESAT6 [4] = assay: ELISA-based specificity control with unrelated protein ESAT6; assay type: binding, Mycobacterium tuberculosis; settings: 500 ng ESAT6 coated, test protein overlaid, 450 nm
From the text: as §1

myosin A/MTIP complex [5] = assay: Competitive ELISA, inhibition of myosin A/MTIP interaction; assay type: binding, Plasmodium falciparum; settings: 500 ng myosin A tail coated, MTIP 1 µM, ZA1 0, 0.5, 1, 2, 5 µM, 2 h 37 °C, anti-MTIP, 450 nm, triplicates
Method: For ELISA-based inhibition of the interaction between MyoA/MTIP complex using ZA1, 500 ng peptide was coated on Maxisorb ELISA plates, followed by overnight blocking at 4 °C. The bound peptide was overlaid with MTIP (1 µM) for 2 h at 37 °C. The plates were washed with wash buffer (1 × PBS, 0.05% Tween-20) thrice and overlaid with increasing concentrations of ZA1 (0 µM, 0.5 µM, 1 µM, 2 µM, 5 µM) for 2 h at 37 °C. […] Optical density was taken at 450 nm. All wells were put in triplicates.

myosin A/MTIP complex [6] = assay: Bacterial three-hybrid assay, disruption of myosin A/MTIP complex; assay type: cell-based, Plasmodium falciparum
From the text: For bacterial three-hybrid experiments, MyoA-pTRG and MTIP-pBT were used to co-transform R1 competent cells. The resulting co-transformants were checked for the presence of both plasmids by PCR using gene and vector-specific primers (MyoA For/pTRG Rev, MTIP For/pBT Rev). The resulting blue colonies were used to prepare competent cells that were subsequently transformed with ZA1-pMTSA or control pMTSA plasmid and plated on X-gal indicator plates, both in the presence or absence of L-arabinose (2% w/v). The plates were incubated at 30 °C for 48 h. The color of the colonies indicated the formation or disruption of myosin A/MTIP complex. The background and validation of bacterial three-hybrid assay have been described previously.
An arabinose gradient assay in liquid culture was performed, as described previously. Briefly, the mid-log phase culture was induced with varying concentrations of L-arabinose (0–4 mM) for 3 h at 37 °C. The cells were pelleted, and the levels of β-galactosidase were measured. E. coli BL21 (DE3) cells were induced with varying concentrations of L-arabinose (as described in the arabinose gradient assay). Whole-cell lysates of a 10 mL culture were used to analyze the expression of ZA1 using an anti-His antibody (1:2000 dilution).

myosin A-MTIP complex = assay: Competitive ITC, pre-bound myosin A-MTIP complex into ZA1; assay type: binding, Plasmodium falciparum; settings: 25 °C, pre-bound myosin A-MTIP complex (150 µM each) in syringe, 10 µM ZA1 in cell
Method: For the competitive ITC experiment, a pre-bound complex of MyoA-MTIP in an equal molar ratio (150 µM each) was taken in the syringe. The complex was used to titrate ZA1 (10 µM) present in the cell. As a control, the pre-bound MyoA-MTIP complex was titrated in buffer only. All parameters were kept identical to the one-on-one ITC experiment. Origin software was used for data analysis and for calculating binding parameters like stoichiometry (N), binding constant (Kd), and enthalpy change (ƍH).

[7] = target: Myosin A-pTRGnn (myosin A tail, bacterial two-hybrid fusion) (Plasmodium falciparum) (UniProt Q8IDR3); assay: two-hybrid; bacterial two-hybrid, liquid β-galactosidase assay, relative Miller units, average of three assays
ESAT6 [8] = assay type: cell-based, Mycobacterium tuberculosis; settings: ESAT6-pTRGnn versus CFP10-pBTnn, average of three independent assays ± standard deviation
ZA1S peptide = target: T1, ZA1S peptide; assay: far-Western, overlay or dot blot; 5 µg ZA1S peptide, BSA and non-specific peptide spotted on nitrocellulose; overlaid with 5 µg/mL biotinylated myosin A tail in 1% BSA/PBST, 2 h, room temperature; anti-biotin antibody; settings: both partners purified
T1 construct: also called shortened ZA1
T1 chain: DIDIDIMHE

[9] = target: T2, recombinant MTIP-His (61–204 residues) (Plasmodium falciparum, UniProt Q8I4W8 61-204); assay: ITC; ITC200, 25 °C, phosphate buffer; MyoA tail in the syringe (100 µM for MTIP, 150 µM for ZA1), 10 µM MTIP or ZA1 in the cell; single site model; settings: both partners purified
T2 construct: source: E. coli BL21 (DE3), purified (Ni-NTA, native conditions, dialysed against PBS); not shown: His6, C-terminal, kept
T2 sequence: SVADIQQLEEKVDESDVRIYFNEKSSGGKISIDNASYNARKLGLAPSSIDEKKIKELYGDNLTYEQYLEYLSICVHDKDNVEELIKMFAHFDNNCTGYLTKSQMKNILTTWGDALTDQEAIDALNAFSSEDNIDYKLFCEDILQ

[10] = X-gal blue-white selection, DI-EL dicodon library, 30 °C, 48 h

SGRHVFKQLDIDIDIMHELDIELELDIDIDIMHPGDIDIDIDIDIQLDIELDIMHDIDIDIMHMHQLELELDIFKHVAAA [ZA1]
Interaction with myosin A tail (myosin A tail [1]): positive interaction between myosin A and ZA1 that was concentration-dependent
Kd (myosin A tail [2]): 0.719 µM
Interaction with myosin A tail in library screening (myosin A tail [3]): positive interactions
Intensity of blue color on bacterial two-hybrid selection plate (myosin A tail [3]; X-gal plate, versus the other library hits): maximum intensity of blue color
Relative enzyme activity (β-galactosidase) (myosin A tail [3]; myosin A-pTRGnn versus ZA1-pBTnn, average of three independent assays ± standard deviation): 83.48 ± 0.82 Miller units
Heat changes on titration of pre-bound Myosin A-ZA1 complex into MTIP (MTIP): No heat changes are observed
Interaction with unrelated protein ESAT6 (ESAT6 [4]): no interaction was found
MTIP bound to myosin A tail (myosin A/MTIP complex [5]): The amount of MTIP bound to myosin A tail reduced with increasing ZA1
Colony color change (disruption of myosin A/MTIP complex) (myosin A/MTIP complex [6]; E. coli triple co-transformant, X-gal plate with L-arabinose (2% w/v), 30 °C, 48 h): the color of the colonies changed from blue to white, indicating the disruption of myosin A/MTIP complex
Strength of myosin A/MTIP interaction (β-galactosidase) (myosin A/MTIP complex [6]; L-arabinose gradient 0–4 mM, 3 h, 37 °C, average of three independent assays): A reduction in the strength of interaction was observed with increasing amounts of ZA1
Completeness of myosin A/MTIP disruption (myosin A/MTIP complex [6]; bacterial three-hybrid): we did not find a complete disruption of myosin A/MTIP complex
Kd (myosin A-MTIP complex): 57 µM

MTIP-pBT (MTIP, bacterial two-hybrid fusion) (from UniProt Q8I4W8 61-204) (domain or fragment)
relative enzyme activity (Miller Units) [7]: 96.1 Miller Units

SGRHVFKELDIELDIDIDIDIDIDIDIELMHDIQLDIELDIDIMHMHDIPGDIDIMHSTMHQLDIELMHPGDIDIQLFKHVAAA [ZA3]
Interaction with myosin A tail in library screening (myosin A tail [3]; [10]): positive interactions

SGRHVFKPGMHELDIELELDIELDIDIDIELDIDIELDIDIDIDIQLYVDIELMHELDIDIRTELELDIPGELEFDIELDIDIFKHVAAA [ZA2]
Interaction with myosin A tail in library screening (myosin A tail [3]; [10]): positive interactions

B1: CFP10: Culture filtrate protein 10 kDa, Mycobacterial protein, positive control partner of ESAT6 (protein)
chain: MAEMKTDAATLAQEAGNFERISGDLKTQIDQVESTAGSLQGQWRGAAGTAAQAAVVRFQEAANKQKQELDEISTNIRQAGVQYSRADEEQQQALSSQMGF
Relative enzyme activity (β-galactosidase), positive control (ESAT6 [8]; experiment of Figure 1c): 79.17 ± 1.67 Miller Units
Relative enzyme activity (β-galactosidase), positive control (ESAT6 [8]; experiment of Figure 2b): 98.02 ± 2.07 Miller units

NKNIPSLLRVQAHIRKKMVAQ (peptide, UniProt Q8IDR3 798-818, looked up, also: biotinylated, also called myosin A peptide; MyoA tail) [biotinylated myosin A tail]
binding result (ZA1S peptide): binds

B2: Myosin A tail (798–818 residues), peptide (peptide)
chain: NKNIPSLLRVQAHIRKKMVAQ
notes: source: acquired from Genescript (peptide)
Kd [9]: 0.452 µM
dH [9]: -19.7 kJ/mol

Reference: article PMC7503848 (International Journal of Molecular Sciences, 2020)
